Experiments:
[1] = biological target: T1, MycN Protein (Homo sapiens, UniProt P04198); assay: Degradation of MycN protein, Western blot band density in cells; format: cell-based; conditions: HL-60 or SKNBE2 cells; 6 uL of compound (1 mM) added to 3 mL cells; 6 hours; Western blot band density (ImageJ)
T1 construct: endogenous in cells; host or cells: HL-60 or SKNBE2
T1 sequence (P04198 1-464): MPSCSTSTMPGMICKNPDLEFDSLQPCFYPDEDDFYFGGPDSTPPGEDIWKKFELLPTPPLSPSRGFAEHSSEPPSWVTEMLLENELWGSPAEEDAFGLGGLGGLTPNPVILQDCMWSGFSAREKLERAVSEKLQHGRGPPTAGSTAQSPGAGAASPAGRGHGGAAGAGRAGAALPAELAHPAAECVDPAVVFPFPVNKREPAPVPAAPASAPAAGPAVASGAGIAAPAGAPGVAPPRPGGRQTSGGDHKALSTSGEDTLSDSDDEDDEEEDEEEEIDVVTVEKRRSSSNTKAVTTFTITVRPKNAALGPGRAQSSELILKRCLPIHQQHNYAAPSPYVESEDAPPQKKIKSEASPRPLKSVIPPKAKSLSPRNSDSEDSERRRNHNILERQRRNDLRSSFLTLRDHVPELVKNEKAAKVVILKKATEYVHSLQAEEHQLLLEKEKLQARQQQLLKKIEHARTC
Procedure: (§1) In a T150 flask was plated either 2×10^6 of HL-60 (human leukemia cell line) or SKNBE2 (neuroblastoma cell line) cells in a total of 30 mL containing Roswell Park Memorial Institute (RPMI) 1640 Medium (Thermo Fisher, Cat. #11875-085), 10% Fetal Bovine Serum (FBS, Thermo Fisher: Cat. #10437-028), 1% Penicillin/streptomycin (Thermo Fisher: Cat. #10378016), and 1% Amophotericin B (Thermo Fisher, Cat. #15290026). The cells were split every 72 hours by reseeding the HL-60 or SKNBE2 cells, and the passage number was noted. It is noteworthy that cell cultures that were above 40 passages were not used, and most experiments were done with cells of less than 30 passages.
(§2) In a 6-well cell culture plate, a total of 3 mL of either 1×10^6 cells/mL of HL-60 or SKNBE2 cells were seeded, resulting in a total of 3×10^6 cells per well. To each well containing 3 mL of either HL-60 or SKNBE2 cell line was added 6 uL of MycN modulating compound (1 mM) and the resulting plate was shaken from left to right, and not swirled. After 6 hours, the cells were placed in a 15 mL falcon tube and spun at 500 Gs at 4° C. in a swinging bucket centrifuge. The medium was then carefully removed without disturbing the pellet. The pellet was then washed with 3 mLs of chilled phosphate buffered saline (PBS) and subjected to the spin cycle. PBS was then removed and the pellet was lysed in 200 uL of radioimmunoprecipitation (RIPA) lysis buffer (Thermo Fisher: Cat. #899000) that is supplemented with protease and phosphatase inhibitors (Thermo Fisher: Cat. #A32959). The cell lysate was then subjected to spinning in a centrifuge for 10 minutes at 13000G at 4° C. The supernatant was then carefully transferred to a fresh eppendorf tube without disturbing the pellet (˜180 uL). The protein concentration of the cell lysate was then determined by using a bicinchoninic acid (BCA assay) according to manufacturer's protocol (Thermo Fisher: Cat. #23227).
(§3) Cell lysate, approximately 25 ug-30 ug, was loaded per well in a 4-20% polyacrylamide gel (Biorad. Cat. #5671094). After running the dye front off of the gel, the gel was transferred to a nitrocellulose membrane (Biorad: Cat. #1704159) using the transblot turbo system (Biorad: Cat. #1704150) according to manufacturer's protocol. After transferring for 30 minutes, the membrane was blocked with 5% BSA for 1 hour at room temperature. The BSA was then washed off and the primary antibody of choice (1:500) was added, and the membrane was incubated with the primary antibody at 4° C. for overnight. The next morning, the primary antibody was removed and the membrane was washed with 1×-TBST for 10 minutes and repeated three more times. Following the last wash, a secondary antibody (Molecular Devices. Cat. #R8209 or R8208) was added at 1:5000 dilution and incubated for 1 hour at room temperature. Following the incubation with the secondary antibody, the membrane was washed with 1×-TBST for 10 minutes and repeated three more times. Following the last wash, the membrane was washed with de-ionized water twice and dried for at least two hours. Once the membrane is completely dry, the Molecular Devices Spectra Max western system was used to observe the bands. The western image was saved and the band density was measured with ImageJ software.

[2] = biological target: T2, MycC Protein (Homo sapiens, UniProt P01106); assay: Degradation of MycC protein, Western blot band density in cells; format: cell-based; conditions: HL-60 or SKNBE2 cells; 6 uL of compound (1 mM) added to 3 mL cells; 6 hours; Western blot band density (ImageJ)
T2 construct: endogenous in cells; host or cells: HL-60 or SKNBE2
T2 sequence (P01106 whole entry): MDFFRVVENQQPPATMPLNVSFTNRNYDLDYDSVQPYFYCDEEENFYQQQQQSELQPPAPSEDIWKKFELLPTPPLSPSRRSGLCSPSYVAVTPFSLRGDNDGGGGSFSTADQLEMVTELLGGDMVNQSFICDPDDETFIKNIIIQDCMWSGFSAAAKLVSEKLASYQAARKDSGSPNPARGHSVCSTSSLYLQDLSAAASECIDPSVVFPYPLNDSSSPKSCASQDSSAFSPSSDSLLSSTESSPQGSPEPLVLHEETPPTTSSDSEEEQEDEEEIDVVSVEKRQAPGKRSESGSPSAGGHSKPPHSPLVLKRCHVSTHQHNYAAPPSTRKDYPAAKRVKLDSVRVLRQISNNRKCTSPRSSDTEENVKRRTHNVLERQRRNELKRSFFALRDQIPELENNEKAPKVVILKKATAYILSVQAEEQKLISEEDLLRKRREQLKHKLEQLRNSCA
Procedure: as §1, §2, §3

Row | SMILES | Dmax at 2 µM [1] | Dmax at 2 µM [2] | % Degradation of MycN [1] | % Degradation of MycC [2]
1 | N#Cc1ccc2c(c1)CC(NC(=O)N[C@H]1CC[C@H](Nc3nccc(Nc4cc(C5CCCC5)[nH]n4)n3)CC1)C2 (mixture of isomers) [Compound 11 (Racemic), 1-(5-cyano-2,3-dihydro-1H-inden-2-yl)-3-((1R,4R)-4-((4-((5-cyclopentyl-1H-pyrazol-3-yl)amino)pyrimidin-2-yl)amino)cyclohexyl)urea] | – | – | **** (****: degradation 80-100%) | **** (****: degradation 80-100%)
2 | CN(c1nccc(Nc2cc(C3CCCC3)[nH]n2)n1)C1CCC(NC(=O)NC2Cc3ccc(C#N)cc3C2)CC1 (racemic) [Compound 16 (Racemic), 1-(5-cyano-2,3-dihydro-1H-inden-2-yl)-3-((1R,4R)-4-((4-((5-cyclopentyl-1H-pyrazol-3-yl)amino)pyrimidin-2-yl)(methyl)amino)cyclohexyl)urea] | – | – | **** (****: degradation 80-100%) | **** (****: degradation 80-100%)
3 | CN(c1nccc(Nc2cc(C3CCCC3)[nH]n2)n1)C1CCC(NC(=O)N[C@H]2CCC[C@@H](C(F)(F)F)C2)CC1 (mixture of isomers) [Compound 121 (Racemic), 1-((1R,4S)-4-((4-((5-cyclopentyl-1H-pyrazol-3-yl)amino)pyrimidin-2-yl)(methyl)amino)cyclohexyl)-3-((1S,3R)-3-(trifluoromethyl)cyclohexyl)urea] | – | – | *** (***: degradation 50-79%) | *** (***: degradation 50-79%)
4 | CC(=O)N1CCC(NC(=O)N[C@H]2CC[C@H](Nc3nccc(Nc4cc(C5CCCC5)[nH]n4)n3)CC2)CC1 [Compound 2, 1-(1-acetylpiperidin-4-yl)-3-((1R,4R)-4-((4-((5-cyclopentyl-1H-pyrazol-3-yl)amino)pyrimidin-2-yl)amino)cyclohexyl)urea] | 20 to 49% | < 20% | – | –
5 | CS(=O)(=O)c1ccc2c(c1)CC(NC(=O)N[C@H]1CC[C@H](Nc3nccc(Nc4cc(C5CCCC5)[nH]n4)n3)CC1)C2 (stereo partly drawn) [Compound 3, 1-((1R,4R)-4-((4-((5-cyclopentyl-1H-pyrazol-3-yl)amino)pyrimidin-2-yl)amino)cyclohexyl)-3-(5-(methylsulfonyl)-2,3-dihydro-1H-inden-2-yl)urea] | 20 to 49% | 50 to 79% | – | –
6 | CC(NC(=O)N[C@H]1CC[C@H](Nc2nccc(Nc3cc(C4CCCC4)[nH]n3)n2)CC1)c1ccccn1 (some centres unmarked) [Compound 4] | 20 to 49% | 80 to 100% | – | –
7 | N#Cc1ccc2c(c1)CC(NC(=O)N[C@H]1CC[C@H](Nc3nccc(Nc4cc(C5CCOC5)[nH]n4)n3)CC1)C2 (stereo partly drawn) [Compound 5, 1-(5-cyano-2,3-dihydro-1H-indene-2-yl)-3-((1R,4R)-4-((4-((5-(tetrahydrofuran-3-yl)-1H-pyrazol-3-yl)amino)pyrimidine-2-yl)amino)cyclohexyl)urea] | 20 to 49% | < 20% | – | –
8 | Cc1cc(Nc2ccnc(NC3CCC(N)CC3)n2)n[nH]1 [Compound 6, N^2-((1R,4R)-4-aminocyclohexyl)-N^4-(5-methyl-1H-pyrazol-3-yl)pyrimidine-2,4-diamine] | – | – | * (*: degradation <20%) | ** (**: degradation 20-49%)
9 | CCc1cc(Nc2ccnc(N[C@H]3CC[C@H](NC(=O)NC4Cc5ccc(C#N)cc5C4)CC3)n2)n[nH]1 (stereo partly drawn) [Compound 8, 1-(5-cyano-2,3-dihydro-1H-inden-2-yl)-3-((1R,4R)-4-((4-((5-ethyl-1H-pyrazol-3-yl)amino)pyrimidin-2-yl)amino)cyclohexyl)urea] | < 20% | 20 to 49% | – | –
10 | N#Cc1ccc2c(c1)CC(NC(=O)N[C@H]1CC[C@H](Nc3nccc(Nc4cc(C5CCCC5)[nH]n4)n3)CC1)C2 (stereo partly drawn) [Compound 11 (Fraction 1), 1-(5-cyano-2,3-dihydro-1H-inden-2-yl)-3-((1R,4R)-4-((4-((5-cyclopentyl-1H-pyrazol-3-yl)amino)pyrimidin-2-yl)amino)cyclohexyl)urea] | – | – | ** (**: degradation 20-49%) | **** (****: degradation 80-100%)
11 | O=C(NC1CC2CCC(C1)N2C1CC1)N[C@H]1CC[C@H](Nc2nccc(Nc3cc(C4CCCC4)[nH]n3)n2)CC1 (stereo partly drawn) [Compound 61, 1-((1R,4R)-4-((4-((5-cyclopentyl-1H-pyrazol-3-yl)amino)pyrimidin-2-yl)amino)cyclohexyl)-3-(8-cyclopropyl-8-azabicyclo[3.2.1]octan-3-yl)urea] | < 20% | – | – | –
12 | O=C(NC12CCN(CC1)CC2)N[C@H]1CC[C@H](Nc2nccc(Nc3cc(C4CCCC4)[nH]n3)n2)CC1 [Compound 68] | 20 to 49% | – | – | –

Continued, in another order:

Row | Dmax at 2 µM [1] | Dmax at 2 µM [2] | SMILES | % Degradation of MycN [1] | % Degradation of MycC [2]
13 | < 20% | < 20% | O=C(NC1CCCC(N2CCCC2=O)C1)N[C@H]1CC[C@H](Nc2nccc(Nc3cc(C4CCCC4)[nH]n3)n2)CC1 (mixture of isomers) [Compound 27, 1-((1R,4R)-4-((4-((5-cyclopentyl-1H-pyrazol-3-yl)amino)pyrimidin-2-yl)amino)cyclohexyl)-3-(3-(2-oxopyrrolidin-1-yl)cyclohexyl)urea] | – | –
14 | 20 to 49% | – | O=C(Nc1cccc(C(F)(F)F)c1)N[C@@H]1CC[C@@H](Nc2nccc(Nc3cc(C4CCCC4)[nH]n3)n2)C1 [Compound 82] | – | –
15 | 20 to 49% | – | CN1CCC(NC(=O)N[C@H]2CC[C@H](Nc3nccc(Nc4cc(C5CCCC5)[nH]n4)n3)CC2)CC1 [Compound 97, 1-((1R,4R)-4-((4-((5-cyclopentyl-1H-pyrazol-3-yl)amino)pyrimidin-2-yl)amino)cyclohexyl)-3-(1-methylpiperidin-4-yl)urea] | – | –
16 | < 20% | – | CN(C)C(=N)c1ccc2c(c1)CC(NC(=O)N[C@H]1CC[C@H](Nc3nccc(Nc4cc(C5CCCC5)[nH]n4)n3)CC1)C2 (some centres unmarked) [Compound 98] | – | –
17 | < 20% | – | N=C(NC1COC1)c1ccc2c(c1)CC(NC(=O)N[C@H]1CC[C@H](Nc3nccc(Nc4cc(C5CCCC5)[nH]n4)n3)CC1)C2 (some centres unmarked) [Compound 99] | – | –
18 | < 20% | – | O=C(NC1Cc2ccc(C3=NCC(O)CN3)cc2C1)N[C@H]1CC[C@H](Nc2nccc(Nc3cc(C4CCCC4)[nH]n3)n2)CC1 (some centres unmarked) [Compound 100] | – | –
19 | 50 to 79% | – | CN(c1nccc(Nc2cc(C3CCCC3)[nH]n2)n1)[C@H]1CC[C@H](NC(=O)Nc2cccc(C(F)(F)F)c2)CC1 [Compound 146, 1-((1R,4R)-4-((4-((5-cyclopentyl-1H-pyrazol-3-yl)amino)pyrimidin-2-yl)(methyl)amino)cyclohexyl)-3-(3-(trifluoromethyl)phenyl)urea] | – | –
20 | 80 to 100% | – | CN(c1nccc(Nc2cc(C3CC3)[nH]n2)n1)[C@H]1CC[C@H](NC(=O)Nc2cccc(C(F)(F)F)c2)CC1 [Compound 147, 1-((1R,4R)-4-((4-((5-cyclopropyl-1H-pyrazol-3-yl)amino)pyrimidin-2-yl)(methyl)amino)cyclohexyl)-3-(3-(trifluoromethyl)phenyl)urea] | – | –
21 | 50 to 79% | – | CN(c1nccc(Nc2cc(C3CC3)[nH]n2)n1)[C@H]1CC[C@H](NC(=O)NC2Cc3cc(F)c(F)cc3C2)CC1 [Compound 151, 1-((1R,4R)-4-((4-((5-cyclopropyl-1H-pyrazol-3-yl)amino)pyrimidin-2-yl)(methyl)amino)cyclohexyl)-3-(5,6-difluoro-2,3-dihydro-1H-inden-2-yl)urea] | – | –

Source: patent US20210369710A1, “MODULATORS OF MYC FAMILY PROTO-ONCOGENE PROTEIN” (Nalo Therapeutics, priority 2019, published 2021)
